Results as given in ChEMBL document CHEMBL3627653, “Synthesis and biological evaluation of spiro[cyclopropane-1,3'-indolin]-2'-ones as potential anticancer agents” (Bioorg Med Chem Lett, 2015).

Experiments:
Type in all cases: functional, cell-based
HT-29 = assay: Anticancer activity against human HT-29 cells assessed as reduction in cell viability incubated for 48 hrs by MTT assay; conditions: HT-29, 48 h
DU-145 = assay: Anticancer activity against human DU145 cells assessed as reduction in cell viability incubated for 48 hrs by MTT assay; conditions: DU-145, 48 h
HeLa = assay: Anticancer activity against human HeLa cells assessed as reduction in cell viability incubated for 48 hrs by MTT assay
A549 = assay: Anticancer activity against human A549 cells assessed as reduction in cell viability incubated for 48 hrs by MTT assay; conditions: A549, 48 h
MCF7 = assay: Anticancer activity against human MCF7 cells assessed as reduction in cell viability incubated for 48 hrs by MTT assay; conditions: MCF7, 48 h

Row | SMILES | IC50 (HT-29) [µM] | IC50 (DU-145) [µM] | IC50 (HeLa) [µM] | IC50 (A549) [µM] | IC50 (MCF7) [µM]
1 | CCOC(=O)[C@H]1[C@H](C(O)c2ccc([N+](=O)[O-])cc2)C12C(=O)Nc1ccc(Br)cc12 (stereo partly drawn) | 23.4 | 27.8 | 28.8 | 21.1 | > 100
2 | CCOC(=O)[C@@H]1[C@@H](C(=O)c2ccccc2)C12C(=O)Nc1ccccc12 (stereo partly drawn) | 2.75 | 1.69 | 7.24 | 4.16 | 2.95
3 | CCOC(=O)[C@H]1C(C(=O)c2ccc(OC)cc2)C12C(=O)Nc1ccc(Cl)cc12 (stereo partly drawn) | 9.54 | 5.01 | 9.12 | 6.42 | 9.33
4 | CCOC(=O)[C@H]1[C@H](C(=O)OCC)C12C(=O)Nc1ccc(Cl)cc12 (relative stereo) | 22.9 | 19.9 | 25.1 | 29 | 24
5 | CCOC(=O)[C@H]1[C@H](C(=O)OCC)C12C(=O)Nc1ccc(Br)cc12 (relative stereo) | 30.9 | 50.7 | 62.8 | > 100 | > 100
6 | CCOC(=O)[C@H]1[C@H](C(=O)OCC)C12C(=O)Nc1ccc(F)cc12 (relative stereo) | 36.6 | 24.3 | 84.2 | 78.2 | 36.8
7 | CCOC(=O)[C@H]1[C@H](C(=O)OCC)C12C(=O)Nc1ccccc12 (relative stereo) | 18.9 | 18.6 | 61.3 | > 100 | 57.5
8 | CCOC(=O)[C@H]1[C@H](C(=O)OCC)C12C(=O)Nc1ccc([N+](=O)[O-])cc12 (relative stereo) | 50.1 | 38 | 32.9 | > 100 | 71.6
9 | CCOC(=O)[C@H]1[C@H](C(=O)OCC)C12C(=O)N(C)c1ccccc12 (relative stereo) | 26.9 | 39.8 | 32.2 | 74.2 | 32.1
10 | CCOC(=O)[C@H]1[C@H](C(=O)c2ccc(Cl)cc2)C12C(=O)Nc1ccccc12 (relative stereo) | 23.7 | 15.8 | 19.9 | 12.9 | 18.6
11 | CCOC(=O)[C@H]1[C@H](C(=O)c2ccc(OC)cc2)C12C(=O)Nc1ccccc12 (relative stereo) | 14.7 | 17.4 | 26.3 | 9.77 | 19.1
12 | CCOC(=O)[C@H]1[C@H](C(=O)c2ccc3ccccc3c2)C12C(=O)Nc1ccccc12 (relative stereo) | 18 | 17.2 | 20 | 12.6 | 31.1
13 | CCOC(=O)[C@H]1[C@H](C(=O)c2ccc([N+](=O)[O-])cc2)C12C(=O)Nc1ccccc12 (relative stereo) | 25.1 | 19.8 | 41.3 | 19.1 | 22.1
14 | CCOC(=O)[C@H]1[C@H](C(=O)c2ccc(OC)c([N+](=O)[O-])c2)C12C(=O)Nc1ccccc12 (relative stereo) | 7.24 | 6.36 | 7.76 | 4.79 | 9.77
15 | CCOC(=O)[C@H]1[C@H](C(=O)c2cc(OC)c(OC)c(OC)c2)C12C(=O)Nc1ccccc12 (relative stereo) | 8.51 | 15.8 | 32.8 | 17.7 | 50.1
16 | CCOC(=O)[C@H]1[C@H](C(=O)c2cc(OC)c(OC)c(OC)c2)C12C(=O)Nc1ccc(Cl)cc12 (relative stereo) | 25.1 | 21.9 | 39.8 | 24.1 | 37.5
17 | COc1cccc2c1C(=O)c1c(O)c3c(c(O)c1C2=O)C[C@@](O)(C(=O)CO)C[C@@H]3O[C@H]1C[C@H](N)[C@H](O)[C@H](C)O1 [DOXORUBICIN] | 0.93 | 1.94 | 1.51 |  | 
